A short description of series [1]: Stability of aqueous solution of AST-2660-D8-sodium salt by 31P-NMR with HMPA as internal standard. In kind it is physicochemical. On the procedure: This example is to study the stability of the sample solution by detecting the content of the aqueous solution of AST-2660-D8-sodium salt: ^31P-NMR was used for detection, and the content of the aqueous solution of AST-2660-D8-sodium salt was characterized by comparing the area ratio of ^31peak of HMPA as an internal standard to that of ^31P peak of AST-2660-D8 sodium salt within 48 hours, thereby determining whether the mass of the sample solution was reduced as a result of degradation.
^31P-NMR of the samples was run on an NMR instrument.
HMPA (21.8 mg, 0.1217 mmol) was dissolved in water (2.20 mL), wherein the total mass was […], and the concentration of HMPA was 5.72×10^−5 mmol/mg. A solution of AST-2660-D8-sodium salt (588 mg, about 0.5 mL) and a solution of HMPA (293 mg, 1.676×10^−2 mmol) were mixed together as samples for 31 P-NMR analysis under −20° C. storage conditions at different times. The ratio of integrated peak area of the nuclear magnetic peak (about 29.874 ppm) for the corresponding HMPA to that of the nuclear magnetic peak (about 24.491 ppm) for AST-2660-D8-sodium salt in the nuclear magnetic spectrum was calculated, and the integrated peak of the nuclear magnetic peak for HMPA was set as 1.
According to the same operation, a sample with another concentration was formulated for detection, and ^31P-NMR analysis was performed under −78° C. storage conditions at different times. […]

Series [2] can be described thus: Stability of AST-2660 and AST-2660-D8 methanol stock/working solutions (LC-MS/MS peak area, stored vs fresh solution). Format: physicochemical. On the procedure: The relevant parameters of the LC-MS/MS experimental method are provided.
AST-2660 (prepared by referring to Example 1 and selecting non-deuterated raw materials) standard stock solution (methanol solution with a concentration of 1.0 mg/ml): an appropriate amount of AST-2660 was taken, added with an appropriate amount of methanol, diluted and mixed thoroughly to obtain 1.0 mg/ml of solution.
A 100 μL standard stock solution of AST-2660 was taken, added with 9900 μL of methanol, diluted and mixed thoroughly to obtain 10.0 μg/ml of calibration standard working solution.
[…] A 20 μL of internal standard stock solution of AST-2660-D8 was taken, added with 9980 μL methanol, diluted and mixed thoroughly to obtain 100 ng/ml of internal standard working solution.
It can be seen from Table 10 that the accuracy of the stability of the AST-2660 working solution and the internal standard AST-2660-D8 working solution was within ±8.1%, and the precision was less than 5.5%. Stability analysis criteria: the difference between the storage stable solution and the freshly prepared solution must be within ±10.0%, and the CV of each replicate experiment must not be greater than 10.0%. Therefore, both AST-2660 and AST-2660-D8 (internal standard) working solutions had good stability and met the requirements under various storage conditions.

Where [3] appears, read: 100 ng/ml methanol solution, fresh stock solution, t = 0.
Where [4] appears, read: 100 ng/ml methanol solution, working solution stored at −70° C., t = 26 days.
Setting [5] is: 1 mg/ml methanol solution, fresh stock solution, t = 0.
The mark [6] stands for this setting: 1 mg/ml methanol solution, stock solution stored at −70° C., t = 26 days.

Values joined by “and” are separate entries in the source; they are usually repeats but may differ in a detail not shown here. Identical values can stand only once.

As for `[2H]C1([2H])N(P(=O)([O-])N2C([2H])([2H])C2([2H])[2H])C1([2H])[2H].[Na+]` [AST-2660-D8 sodium salt], the “concentration of AST-2660-D8 sodium salt” value in series [1] (aqueous solution after storage at −20° C. for 6 months) was determined as 1370 µg/mL; in series [1] (aqueous solution after storage at −78° C. for 6 months), 1710 µg/mL; in series [1] (aqueous solution, day 0), 1890 µg/mL. In addition, the decrease of concentration in series [1] (aqueous solution, 6 months of storage at −20° C.) is recorded as 27.5%; in series [1] (aqueous solution, 6 months of storage at −78° C.), 9.5%. The “stability of solution (in words)” value in series [1] (stored at −20 to −78° C. for 48 hours (2 days)) was “stable”. For the same molecule, in series [2] (100 ng/ml AST-2660-D8 methanol working solution, 26 days at −70° C.), the “RE (% difference, peak area stock vs fresh solution)” value was “RE: 0.9%”. In addition, the “Peak area (AST-2660-D8), Mean value” in series [2] (setting [3]) is reported as 3282130; in series [2] (setting [4]), 3311013; in series [2] (setting [5]), 548278.5; in series [2] (setting [6]) it was 537342.5. In addition, the “Peak area (AST-2660-D8), single replicates” value is 3253860 and 3323720 and 3204960 and 3285390 and 3314390 and 3310460 in series [2] (setting [3]); 3289570 and 3332520 and 3294750 and 3307750 and 3306110 and 3335380 in series [2] (setting [4]); 574450 and 589227 and 535059 and 530296 and 537317 and 523322 in series [2] (setting [5]); 539154 and 532283 and 520321 and 550350 and 532469 and 549478 in series [2] (setting [6]). Also, the entries for the “Deviation % over fresh stock solution” value in series [2] (setting [4]) and in series [2] (setting [6]) were 0.9% and −2.0%, respectively. In addition, the “stability of methanol solution (in words)” value in series [2] (stored for 26 days at −70° C.) is “strong stability”.

For the origin of these results see patent publication US20240140970A1, “A […], AND PREPARATION METHOD AND USE THEREOF” (ASCENTAWITS PHARMACEUTICALS, LTD., priority 2021, published 2024).
